Format in all cases: cell-based
For test [1], the system named is A549 (lung adenocarcinoma). Briefly: Antiproliferative activity (CCK-8 cell viability), A549. The conditions noted are these: Homo sapiens, 72 h, read-out: Antiproliferative activity in cancerous cells, A549 (inhibition of cell growth); for inhibition at 3.3 µM: Compound concentration: 3.3 μM; for inhibition at 10 µM: Compound concentration: 10 μM. In outline: (§1)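 Growth inhibition graded in bands from percent viability against DMSO vehicle, read as CCK-8 absorbance at 450 nm. Compound tested at 3.3, 10 or 30 μM for 72 h, 37 °C; media contained 10% FBS: DMEM for HepG2/SW480, MEM for HeLa, F-12K for A549.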

For test [2], the system named is A431 (epidermoid carcinoma). Briefly: Antiproliferative activity (CCK-8 cell viability), A431. The note with it: Homo sapiens, 72 h, read-out: Antiproliferative activity in cancerous cells, A431 (inhibition of cell growth); for inhibition at 3.3 µM: A-431, Compound concentration: 3.3 μM; for inhibition at 10 µM: A-431, Compound concentration: 10 μM. The procedure, abridged: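 This growth inhibition assay used A431 cells maintained in Dulbecco's modified Eagle's medium plus 10% fetal bovine serum. Cells were seeded in 96-well plates, treated with compound for 72 h at 37° C., and then given 10 μL CCK-8 solution. After a further 4 h, absorbance was read at 450 nm.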

The subject of the next test is HepG2 (liver cancer). The test can be described thus: Antiproliferative activity (CCK-8 cell viability), HepG2. The conditions noted are these: Homo sapiens, 72 h, read-out: Antiproliferative activity in cancerous cells, HepG2 (inhibition of cell growth); for inhibition at 3.3 µM: Compound concentration: 3.3 μM; for inhibition at 10 µM: Compound concentration: 10 μM. In outline: as §1

The test system of another test is SW480 (colon cancer). Briefly: Antiproliferative activity (CCK-8 cell viability), SW480. The note with it: Homo sapiens, 72 h; for inhibition at 3.3 µM: Compound concentration: 3.3 μM; for inhibition at 10 µM: Compound concentration: 10 μM; for inhibition at 30 µM: Compound concentration: 30 μM. In outline: as §1
In test [3] the test system is B16F10 (malignant melanoma). The test can be described thus: Antiproliferative activity (CCK-8 cell viability), B16F10. The note with it: Mus musculus, 72 h, read-out: Antiproliferative activity in cancerous cells, B16F10 (inhibition of cell growth); for inhibition at 3.3 µM: B16-F10, Compound concentration: 3.3 μM; for inhibition at 10 µM: B16-F10, Compound concentration: 10 μM. In outline:
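Cell growth inhibition was measured in B16F10 malignant melanoma cells with a Cell Counting Kit-8 viability assay. Cells were maintained in DMEM plus 10% fetal bovine serum, seeded at 2,000-5,000 cells/well in 96-well plates, and treated for 72 h at 37° C. Viability was expressed relative to DMSO-treated vehicle control wells.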

Test [4] has as its system MDA-MB-231 (breast cancer). Briefly: Antiproliferative activity (CCK-8 cell viability), MDA-MB-231. The note with it: Homo sapiens, 72 h, read-out: Antiproliferative activity in cancerous cells, MDA-MB-231 (inhibition of cell growth); for inhibition at 3.3 µM: Compound concentration: 3.3 μM; for inhibition at 10 µM: Compound concentration: 10 μM. The procedure, abridged:
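Growth inhibition of human MDA-MB-231 breast cancer cells was assessed with a Cell Counting Kit-8. Cells cultured in DMEM plus 10% FBS were seeded at 2,000-5,000 cells/well, treated after attachment, and kept 72 h at 37° C. CCK-8 solution (10 μL) was added for 4 h, and absorbance at 450 nm was compared with DMSO-treated controls.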

The next test relates to HeLa (cervical cancer). Briefly: Antiproliferative activity (CCK-8 cell viability), HeLa. The conditions noted are these: Homo sapiens, 72 h, read-out: Antiproliferative activity in cancerous cells, HELA (inhibition of cell growth); for inhibition at 3.3 µM: Compound concentration: 3.3 μM; for inhibition at 10 µM: Compound concentration: 10 μM. In outline:
as §1

[5] abbreviates: read-out: Antiproliferative activity in cancerous cells, SW480 (inhibition of cell growth).

Where two headings read alike, the source gives them in different places.

Regarding `CC1=C(CC(=O)O)c2cc(Cl)ccc2/C1=C\c1cccc(Oc2ccc(O)cc2)c1` [C104, (Z)-2-(5-Chloro-1-(3-(4-hydroxyphenoxy)benzylidene)-2-methyl-1H-inden-3-yl)acetic acid], the inhibition at 3.3 µM is under 30% in test [1]; at least 50% in test [2]; under 30% in the test with HepG2 (liver cancer); under 30% in the test with SW480 (colon cancer) (setting [5]); at least 50% in test [3]; under 30% in test [4]. Further, the inhibition at 3.3 µM with HeLa (cervical cancer) is at least 50%. Also, the inhibition at 10 µM (in test [1]; in test [2]; in the test on HepG2 (liver cancer); in the test with SW480 (colon cancer) (setting [5]); in test [3]; in test [4]) was at least 50% throughout. Also, the inhibition at 10 µM in the test on HeLa (cervical cancer) is at least 50%.
As to `CC1=C(CC(=O)O)c2cc(F)ccc2/C1=C\c1ccc(Oc2ccc(Cl)cc2)cc1O` [C80, (Z)-2-(1-(4-(4-Chlorophenoxy)-2-hydroxybenzylidene)-5-fluoro-2-methyl-1H-inden-3-yl)acetic acid], the inhibition at 3.3 µM in test [1] is 30 to 50%; in test [2], 30 to 50%; with HepG2 (liver cancer), under 30%; with SW480 (colon cancer) (setting [5]) it was under 30%; in test [3], 30 to 50%; in test [4], at least 50%. Further, the inhibition at 3.3 µM in the test with HeLa (cervical cancer) is under 30%. Further, the inhibition at 10 µM (in test [1]; in test [2]; in the test with HepG2 (liver cancer); in the test on SW480 (colon cancer) (setting [5]); in test [3]; in test [4]) was at least 50% each time. Besides, the inhibition at 10 µM with HeLa (cervical cancer) is at least 50%.
Turning to `CC1=C(CC(=O)O)c2c(Cl)cc(Cl)cc2/C1=C\c1ccc(Oc2ccc(F)cc2)cc1` [C87, (Z)-2-(4,6-Dichloro-1-(4-(4-fluorophenoxy)benzylidene)-2-methyl-1H-inden-3-yl)acetic acid], the inhibition at 3.3 µM was under 30% in test [1]; at least 50% in test [2]; under 30% in the test on HepG2 (liver cancer); under 30% in the test with SW480 (colon cancer) (setting [5]); at least 50% in test [3]; at least 50% in test [4]. The inhibition at 3.3 µM in the test on HeLa (cervical cancer) was under 30%. The inhibition at 10 µM (in test [1]; in test [2]; with HepG2 (liver cancer); in the test with SW480 (colon cancer) (setting [5]); in test [3]; in test [4]) was at least 50% each time. Also, in the test on HeLa (cervical cancer), the inhibition at 10 µM was at least 50%.
With `CC1=C(CC(=O)O)c2cc(F)ccc2/C1=C\c1ccc(CCOc2ccc(F)cc2)cc1` [B33, (Z)-2-(5-Fluoro-1-(4-(2-(4-fluorophenoxy)ethyl)benzylidene)-2-methyl-1H-inden-3-yl)acetic acid], the inhibition at 3.3 µM in test [1] was under 30%; in test [2], at least 50%; with HepG2 (liver cancer) it was under 30%; with SW480 (colon cancer) (setting [5]) it was under 30%; in test [3] it was at least 50%; in test [4], under 30%. In addition, the inhibition at 3.3 µM in the test with HeLa (cervical cancer) was under 30%. For the same compound, the inhibition at 10 µM is 30 to 50% in test [1]; at least 50% in test [2]; 30 to 50% in the test on HepG2 (liver cancer); 30 to 50% in the test on SW480 (colon cancer) (setting [5]); at least 50% in test [3]; 30 to 50% in test [4]. Besides, the inhibition at 10 µM with HeLa (cervical cancer) is 30 to 50%.
For `CC1=C(CC(=O)O)c2cc(F)ccc2/C1=C\c1ccc(CCc2ccc(F)cc2)cc1` [B145, (Z)-2-(5-Fluoro-1-(4-(4-fluorophenethyl)benzylidene)-2-methyl-1H-inden-3-yl)acetic acid], the inhibition at 3.3 µM in test [1] was under 30%; in test [2] it was at least 50%; with HepG2 (liver cancer), under 30%; with SW480 (colon cancer) (setting [5]) it was under 30%; in test [3], under 30%; in test [4], under 30%. Besides, the inhibition at 3.3 µM in the test on HeLa (cervical cancer) was 30 to 50%. The inhibition at 10 µM was under 30% in test [1]; at least 50% in test [2]; at least 50% in the test with HepG2 (liver cancer); under 30% in the test with SW480 (colon cancer) (setting [5]); under 30% in test [3]; under 30% in test [4]. Besides, the inhibition at 10 µM in the test on HeLa (cervical cancer) was at least 50%. For the same compound, in the test with SW480 (colon cancer) (read-out: Antiproliferative activity in cancerous cells, SW480), the inhibition at 30 µM was 30 to 50%.
On to `CC1=C(CC(=O)O)c2cc(F)ccc2/C1=C\c1ccc(CCCc2ccccc2)cc1` [B114, (Z)-2-(5-Fluoro-2-methyl-1-(4-(3-phenylpropyl)benzylidene)-1H-inden-3-yl)acetic acid], for which the inhibition at 3.3 µM was 30 to 50% in test [1]; 30 to 50% in test [2]; at least 50% in the test on HepG2 (liver cancer); at least 50% in the test with SW480 (colon cancer) (setting [5]); under 30% in test [3]; under 30% in test [4]. Besides, in the test with HeLa (cervical cancer), the inhibition at 3.3 µM is at least 50%. Besides, the inhibition at 10 µM was at least 50% in test [1]; at least 50% in test [2]; at least 50% in the test with HepG2 (liver cancer); at least 50% in the test with SW480 (colon cancer) (setting [5]); under 30% in test [3]; under 30% in test [4]. Also, the inhibition at 10 µM in the test on HeLa (cervical cancer) is at least 50%.
As for `CC1=C(CC(=O)O)c2c(Cl)cc(Cl)cc2/C1=C/c1ccc(Oc2ccc(F)cc2)cc1` [E33, (E)-2-(4,6-Dichloro-1-(4-(4-fluorophenoxy)benzylidene)-2-methyl-1H-inden-3-yl)acetic acid], the inhibition at 3.3 µM in test [1] was under 30%; in test [2], at least 50%; in the test on HepG2 (liver cancer), under 30%; in the test on SW480 (colon cancer) (setting [5]), under 30%; in test [3] it was at least 50%; in test [4], under 30%. In the test on HeLa (cervical cancer), the inhibition at 3.3 µM was in the range of 30 to 50%. The inhibition at 10 µM in test [1] was at least 50%; in test [2] it was at least 50%; with HepG2 (liver cancer) it was at least 50%; with SW480 (colon cancer) (setting [5]), 30 to 50%; in test [3], at least 50%; in test [4], at least 50%. Moreover, in the test with HeLa (cervical cancer), the inhibition at 10 µM was at least 50%. Moreover, the inhibition at 30 µM was at least 50% in test [1] (Compound concentration: 30 μM); at least 50% in test [2] (A-431, Compound concentration: 30 μM); at least 50% in the test on HepG2 (liver cancer) (Compound concentration: 30 μM); at least 50% in the test with SW480 (colon cancer) (setting [5]); at least 50% in test [3] (B16-F10, Compound concentration: 30 μM); at least 50% in test [4] (Compound concentration: 30 μM). Also, in the test on HeLa (cervical cancer) (Compound concentration: 30 μM), the inhibition at 30 µM is at least 50%.

Source of the values: patent publication US20260184663A1, “INDENE COMPOUNDS, PHARMACEUTICAL COMPOSITIONS THEREOF, AND THEIR THERAPEUTIC APPLICATIONS” (NucMito Pharmaceuticals co. Ltd., priority 2022, published 2026).
